Laboratory results published in US20220395496A1 (Hoffmann-La Roche Inc., priority 2019, published 2022).

Assays:
[1] = molecular target: T1, human TLR9 (Homo sapiens, UniProt Q9NR96); test: HEK293-Blue-hTLR-9 cells assay (SEAP reporter, ODN2006 stimulation); assay type: cell-based; details: HEK293-Blue-hTLR9 cells, ODN2006, 20 hrs
T1 sequence (Q9NR96 26-1032): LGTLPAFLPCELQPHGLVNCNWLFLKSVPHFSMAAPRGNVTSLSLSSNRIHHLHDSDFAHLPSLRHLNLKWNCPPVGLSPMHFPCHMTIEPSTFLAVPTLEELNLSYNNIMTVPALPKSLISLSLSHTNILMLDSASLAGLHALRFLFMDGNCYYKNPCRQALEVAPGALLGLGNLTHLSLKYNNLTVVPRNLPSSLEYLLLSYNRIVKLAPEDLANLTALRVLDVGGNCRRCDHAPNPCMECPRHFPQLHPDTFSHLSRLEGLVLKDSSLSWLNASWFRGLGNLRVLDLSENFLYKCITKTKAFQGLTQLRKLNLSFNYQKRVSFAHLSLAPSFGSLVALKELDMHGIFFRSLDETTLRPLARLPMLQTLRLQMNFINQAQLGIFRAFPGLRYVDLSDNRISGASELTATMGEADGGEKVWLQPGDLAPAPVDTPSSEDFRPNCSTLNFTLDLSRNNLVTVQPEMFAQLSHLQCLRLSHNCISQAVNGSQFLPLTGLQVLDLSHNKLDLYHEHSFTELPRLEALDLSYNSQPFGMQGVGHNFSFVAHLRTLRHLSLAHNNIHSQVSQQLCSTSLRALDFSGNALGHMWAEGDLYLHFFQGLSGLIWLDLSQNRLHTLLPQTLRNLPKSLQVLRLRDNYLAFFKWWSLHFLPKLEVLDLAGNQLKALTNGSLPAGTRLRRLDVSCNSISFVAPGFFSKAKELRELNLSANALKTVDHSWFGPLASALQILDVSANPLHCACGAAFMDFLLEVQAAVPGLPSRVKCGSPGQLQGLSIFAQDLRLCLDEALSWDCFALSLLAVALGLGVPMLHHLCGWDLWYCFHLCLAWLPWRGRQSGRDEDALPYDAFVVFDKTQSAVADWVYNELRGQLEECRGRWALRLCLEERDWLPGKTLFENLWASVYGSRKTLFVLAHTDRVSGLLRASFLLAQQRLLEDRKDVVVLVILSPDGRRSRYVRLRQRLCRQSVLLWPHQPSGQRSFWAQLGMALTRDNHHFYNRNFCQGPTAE
Description: The following tests were carried out in order to determine the activity of the compounds of this invention in HEK293-Blue-hTLR-7/8/9 cells assay.
HEK293-Blue-hTLR-9 Cells Assay:
A stable HEK293-Blue-hTLR-9 cell line was purchased from InvivoGen (Cat. #: hkb-htlr9, San Diego, Calif., USA). These cells were originally designed for studying the stimulation of human TLR9 by monitoring the activation of NF-κB. A SEAP (secreted embryonic alkaline phosphatase) reporter gene was placed under the control of the IFN-β minimal promoter fused to five NF-κB and AP-1-binding sites. The SEAP was induced by activating NF-κB and AP-1 via stimulating HEK-Blue hTLR9 cells with TLR9 ligands. Therefore the reporter expression was declined by TLR9 antagonist under the stimulation of a ligand, such as ODN2006 (Cat. #: tlr1-2006-1, Invivogen, San Diego, Calif., USA), for incubation of 20 hrs. The cell culture supernatant SEAP reporter activity was determined using QUANTI-Blue™ kit (Cat. #: rep-qb1, Invivogen, San Diego, Calif., USA) at a wavelength of 640 nm, a detection medium that turns purple or blue in the presence of alkaline phosphatase.
HEK293-Blue-hTLR9 cells were incubated at a density of 250,000˜450,000 cells/mL in a volume of 170 μL in a 96-well plate in Dulbecco's Modified Eagle's medium (DMEM) containing 4.5 g/L glucose, 50 U/mL penicillin, […], 2 mM L-glutamine, 10% (v/v) heat-inactivated fetal bovine serum with addition of 20 μL test compound in a serial dilution in the presence of final DMSO at 1% and 10 μL of 20 uM ODN2006 in above DMEM, perform incubation under 37° C. in a CO2 incubator for 20 hrs. Then 20 μL of the supernatant from each well was incubated with 180 μL Quanti-blue substrate solution at 37° C. for 2 hrs and the absorbance was read at 620˜655 nm using a spectrophotometer. The signalling pathway that TLR9 activation leads to downstream NF-κB activation has been widely accepted, and therefore similar reporter assay was modified for evaluating TLR9 antagonist.

[2] = Human microsome stability assay; assay type: in vitro ADME; details: human liver microsomes, 1 μM test compound, 0.5 mg/mL protein, 37° C., pH 7.4
Description: Human Microsome Stability Assay
The human microsomal stability assay is used for early assessment of metabolic stability of a test compound in human liver microsomes. Compounds with high metabolic stability are considered to be desirable as they can provide favorable in vivo PK profiles and thus sufficient exposure in the targeted tissues or organs
Human liver microsomes (Cat. NO.: 452117, Corning, USA; Cat. NO.: H2610, Xenotech, USA) were preincubated with test compound for 10 minutes at 37° C. in 100 mM potassium phosphate buffer, pH 7.4. The reactions were initiated by adding NADPH regenerating system. The final incubation mixtures contained 1 μM test compound, 0.5 mg/mL liver microsomal protein, 1 mM MgCl2, 1 mM NADP, 1 unit/mL isocitric dehydrogenase and 6 mM isocitric acid in 100 mM potassium phosphate buffer, pH 7.4. After incubation times of 0, 3, 6, 9, 15 and 30 minutes at 37° C., 300 μL of cold acetonitrile (including internal standard) was added to 100 μL incubation mixture to terminate the reaction. Following precipitation and centrifugation, the amount of compound remaining in the samples were determined by LC-MS/MS. Controls of no NADPH regenerating system at zero and 30 minutes were also prepared and analyzed.

| SMILES | IC50 [1] | HLM [2] |
| --- | --- | --- |
| C[C@H]1C[C@@H](NCc2ccc(C3CCNCC3)cc2)CN(c2ccc(C#N)c3ncccc23)C1 [Example 2, 5-[(3S,5R)-3-methyl-5-[[4-(4-piperidyl)phenyl]methylamino]-1-piperidyl]quinoline-8-carbonitrile] | 75 nM | 7.0 mL/min/kg |
| C[C@H]1C[C@@H](N2Cc3ccc(N4CCNCC4)cc3C2)CN(c2ccc(C#N)c3ncccc23)C1 [Example 12, 5-[(3S,5R)-3-methyl-5-(5-piperazin-1-ylisoindolin-2-yl)-1-piperidyl]quinoline-8-carbonitrile] | 73 nM | 6.2 mL/min/kg |
| C[C@H]1C[C@@H](NCc2ccc(N3CCNCC3)cc2)CN(c2ccc(C#N)n3nccc23)C1 [Example 21, 4-[(3S,5R)-3-methyl-5-[(4-piperazin-1-ylphenyl)methylamino]-1-piperidyl]pyrazolo[1,5-a]pyridine-7-carbonitrile] | 94 nM | 6.2 mL/min/kg |
| C[C@H]1C[C@@H](N2Cc3cc(N4CCNCC4)cnc3C2)CN(c2ccc(C#N)c3ncccc23)C1 [Example 23, 5-[(3S,5R)-3-methyl-5-(3-piperazin-1-yl-5,7-dihydropyrrolo[3,4-b]pyridin-6-yl)-1-piperidyl]quinoline-8-carbonitrile] | 92 nM | 7.3 mL/min/kg |
| C[C@H]1C[C@@H](NCc2ccccc2)CN(c2ccc(C#N)c3ncccc23)C1 [Example R1, reference compound] | 1870 nM | 17.3 mL/min/kg |
| C[C@H]1C[C@@H](N2Cc3ccccc3C2)CN(c2ccc(C#N)c3ncccc23)C1 [Example R2, reference compound] | 8660 nM | 18.4 mL/min/kg |

Other lines, results leading:

| IC50 [1] | HLM [2] | SMILES |
| --- | --- | --- |
| 55 nM | 7.3 mL/min/kg | C[C@H]1C[C@@H](NCc2ccc(N3CCNCC3)cc2)CN(c2ccc(C#N)c3ncccc23)C1 [Example 1, 5-[(3S,5R)-3-methyl-5-[(4-piperazin-1-ylphenyl)methylamino]1-piperidyl]quinoline-8-carbonitrile] |
| 68 nM | 7.4 mL/min/kg | C[C@H]1C[C@@H](NCc2ccc(N3CCNCC3)nc2)CN(c2ccc(C#N)c3ncccc23)C1 [Example 10] |
| 60 nM | 6.8 mL/min/kg | C[C@H]1C[C@@H](NCc2cnc(N3CCNCC3)nc2)CN(c2ccc(C#N)c3ncccc23)C1 [Example 17, 5-[(3S,5R)-3-methyl-5-[(2-piperazin-1-ylpyrimidin-5-yl)methylamino]-1-piperidyl]quinoline-8-carbonitrile] |
